In PMC7023430, “4-Aminobenzoic Acid Derivatives: Converting Folate Precursor to Antimicrobial and Cytotoxic Agents” (Biomolecules, 2019):
Values after ≈ are worked out from the molar mass of the structure shown. Like-named read-outs stand apart in the source and are kept apart here.

What was measured:
[1] = test system: Staphylococcus aureus ATCC 29213, CCM 4223; experiment: Antibacterial microdilution broth method, S. aureus; assay type: cell-based
[2] = test system: methicillin-resistant Staphylococcus aureus ATCC 43300, CCM 4750 (MRSA); experiment: Antibacterial microdilution broth method, MRSA; assay type: cell-based; details: Staphylococcus aureus
[3] = test system: Enterococcus faecalis ATCC 29212, CCM 4224; experiment: Antibacterial microdilution broth method, E. faecalis; assay type: cell-based; details: Enterococcus faecalis
[4] = test system: Escherichia coli ATCC 25922, CCM 3954; experiment: Antibacterial microdilution broth method, E. coli; assay type: cell-based; details: Escherichia coli
[5] = test system: Mycobacterium tuberculosis H37Rv (331/88); experiment: Antimycobacterial micromethod in Šula's medium, M. tuberculosis; assay type: cell-based
[6] = test system: Mycobacterium avium 330/88; experiment: Antimycobacterial micromethod in Šula's medium, M. avium; assay type: cell-based
[7] = test system: Mycobacterium kansasii 235/80; experiment: Antimycobacterial micromethod in Šula's medium, M. kansasii 235/80; assay type: cell-based
[8] = test system: M. kansasii 6509/96 (clinical isolate); experiment: Antimycobacterial micromethod in Šula's medium, M. kansasii 6509/96; assay type: cell-based; details: Mycobacterium kansasii
[9] = test system: Candida albicans ATCC 44859; experiment: Antifungal microdilution broth method, C. albicans; assay type: cell-based
Summary of the method: (§1)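 Duplicate microdilution tests in RPMI-1640 (2% glucose, L-glutamine, MOPS, pH 7.0) with twofold compound dilutions from DMSO gave visually determined MICs. Results counted only when duplicates agreed to within one step; protocol adapted from EUCAST.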

[10] = test system: Candida tropicalis 156; experiment: Antifungal microdilution broth method, C. tropicalis; assay type: cell-based
Summary of the method: as §1

[11] = test system: Candida krusei E28; experiment: Antifungal microdilution broth method, C. krusei; assay type: cell-based; details: Pichia kudriavzevii
Summary of the method: as §1

[12] = test system: Candida glabrata 20/I; experiment: Antifungal microdilution broth method, C. glabrata; assay type: cell-based; details: Nakaseomyces glabratus
Summary of the method: as §1

[13] = test system: Trichosporon asahii 1188; experiment: Antifungal microdilution broth method, T. asahii; assay type: cell-based
Summary of the method: as §1

[14] = test system: Aspergillus fumigatus 231; experiment: Antifungal microdilution broth method, A. fumigatus; assay type: cell-based
Summary of the method: as §1

[15] = test system: Lichtheimia corymbifera 272; experiment: Antifungal microdilution broth method, L. corymbifera; assay type: cell-based
Summary of the method: as §1

[16] = test system: Trichophyton interdigitale 445; experiment: Antifungal microdilution broth method, T. interdigitale; assay type: cell-based
Summary of the method: as §1

[17] = test system: ESBL-positive Klebsiella pneumoniae J 14368/08
[18] = test system: Klebsiella pneumoniae D 11750/08; experiment: Antibacterial microdilution broth method, K. pneumoniae; details: K. pneumoniae D 11750/08; for MIC KP 24 h: 24 h incubation; for MIC KP 48 h: 48 h incubation
[19] = 24 h incubation, read-out: MIC SA 24 h
[20] = 48 h incubation, read-out: MIC SA 48 h
[21] = 24 h incubation, read-out: MIC MRSA 24 h
[22] = 48 h incubation, read-out: MIC MRSA 48 h
[23] = 24 h incubation, read-out: MIC EF 24 h
[24] = 48 h incubation, read-out: MIC EF 48 h
[25] = 24 h incubation, read-out: MIC EC 24 h
[26] = 48 h incubation, read-out: MIC EC 48 h
[27] = 336 h, 14 days incubation at 37 °C, read-out: MIC Mtb. 331/88 14 d
[28] = 504 h, 21 days incubation at 37 °C, read-out: MIC Mtb. 331/88 21 d
[29] = 330/88, 336 h, 14 days incubation at 37 °C, read-out: MIC M. avium 330/88 14 d
[30] = 330/88, 504 h, 21 days incubation at 37 °C, read-out: MIC M. avium 330/88 21 d
[31] = 235/80, 168 h, 7 days incubation at 37 °C, read-out: MIC M. kansasii 235/80 7 d
[32] = 235/80, 336 h, 14 days incubation at 37 °C, read-out: MIC M. kansasii 235/80 14 d
[33] = 235/80, 504 h, 21 days incubation at 37 °C, read-out: MIC M. kansasii 235/80 21 d
[34] = 168 h, 7 days incubation at 37 °C, read-out: MIC M. kansasii 6509/96 7 d
[35] = 336 h, 14 days incubation at 37 °C, read-out: MIC M. kansasii 6509/96 14 d
[36] = 504 h, 21 days incubation at 37 °C, read-out: MIC M. kansasii 6509/96 21 d
[37] = ATCC44859, 24 h, read-out: MIC CA 24 h
[38] = ATCC44859, 48 h, read-out: MIC CA 48 h

Structure (SMILES): O=C(O)c1ccc(N=Cc2cc(F)ccc2O)cc1 [1b, 4-[(5-Fluoro-2-hydroxybenzylidene)amino]benzoic acid]
- MIC [1, 19]: > 500 µM
- MIC [1, 20]: > 500 µM
- MIC [2, 21]: > 500 µM
- MIC [2, 22]: > 500 µM
- MIC [3, 23]: > 500 µM
- MIC [3, 24]: > 500 µM
- MIC [4, 25]: > 500 µM
- MIC [4, 26]: > 500 µM
- MIC [5, 27]: 500 µM (≈ 130 µg/mL)
- MIC [5, 28]: 500 µM (≈ 130 µg/mL)
- MIC [6, 29]: > 1000 µM
- MIC [6, 30]: > 1000 µM
- MIC [7, 31]: 250 µM (≈ 64.8 µg/mL)
- MIC [7, 32]: 500 µM (≈ 130 µg/mL)
- MIC [7, 33]: 500 µM (≈ 130 µg/mL)
- MIC [8, 34]: 500 µM (≈ 130 µg/mL)
- MIC [8, 35]: 500 µM (≈ 130 µg/mL)
- MIC [8, 36]: 500 µM (≈ 130 µg/mL)
- MIC [9, 37]: > 500 µM
- MIC [9, 38]: > 500 µM
- MIC ([10]; 24 h, read-out: MIC CT 24 h): > 500 µM
- MIC ([10]; 48 h, read-out: MIC CT 48 h): > 500 µM
- MIC ([11]; 24 h, read-out: MIC CK 24 h): > 500 µM
- MIC ([11]; 48 h, read-out: MIC CK 48 h): > 500 µM
- MIC ([12]; 24 h, read-out: MIC CG 24 h): > 500 µM
- MIC ([12]; 48 h, read-out: MIC CG 48 h): > 500 µM
- MIC ([13]; 24 h, read-out: MIC TA 24 h): > 500 µM
- MIC ([13]; 48 h, read-out: MIC TA 48 h): > 500 µM
- MIC ([14]; 24 h, read-out: MIC AF 24 h): > 500 µM
- MIC ([14]; 48 h, read-out: MIC AF 48 h): > 500 µM
- MIC ([15]; 24 h, read-out: MIC LC 24 h): > 500 µM
- MIC ([15]; 48 h, read-out: MIC LC 48 h): > 500 µM
- MIC ([16]; 72 h, read-out: MIC TI 72 h): > 500 µM
- MIC ([16]; 120 h, read-out: MIC TI 120 h): > 500 µM
- MIC KP-E 24 h [17]: >500 µM
- MIC KP-E 48 h [17]: >500 µM
- MIC KP 24 h [18]: >500 µM
- MIC KP 48 h [18]: >500 µM

Structure (SMILES): O=C(O)c1ccc(N=Cc2cc(Cl)ccc2O)cc1 [1c, 4-[(5-Chloro-2-hydroxybenzylidene)amino]benzoic acid]
- MIC [1, 19]: > 500 µM
- MIC [1, 20]: > 500 µM
- MIC [2, 21]: > 500 µM
- MIC [2, 22]: > 500 µM
- MIC [3, 23]: > 500 µM
- MIC [3, 24]: > 500 µM
- MIC [4, 25]: > 500 µM
- MIC [4, 26]: > 500 µM
- MIC [5, 27]: 250 µM (≈ 68.9 µg/mL)
- MIC [5, 28]: 500 µM (≈ 138 µg/mL)
- MIC [6, 29]: 1000 µM (≈ 276 µg/mL)
- MIC [6, 30]: > 1000 µM
- MIC [7, 31]: 250 µM (≈ 68.9 µg/mL)
- MIC [7, 32]: 250 µM (≈ 68.9 µg/mL)
- MIC [7, 33]: 500 µM (≈ 138 µg/mL)
- MIC [8, 34]: 500 µM (≈ 138 µg/mL)
- MIC [8, 35]: 500 µM (≈ 138 µg/mL)
- MIC [8, 36]: 1000 µM (≈ 276 µg/mL)
- MIC [9, 37]: > 125 µM
- MIC [9, 38]: > 125 µM
- MIC ([10]; 24 h, read-out: MIC CT 24 h): 125 µM (≈ 34.5 µg/mL)
- MIC ([10]; 48 h, read-out: MIC CT 48 h): 125 µM (≈ 34.5 µg/mL)
- MIC ([11]; 24 h, read-out: MIC CK 24 h): 125 µM (≈ 34.5 µg/mL)
- MIC ([11]; 48 h, read-out: MIC CK 48 h): 125 µM (≈ 34.5 µg/mL)
- MIC ([12]; 24 h, read-out: MIC CG 24 h): 125 µM (≈ 34.5 µg/mL)
- MIC ([12]; 48 h, read-out: MIC CG 48 h): 125 µM (≈ 34.5 µg/mL)
- MIC ([13]; 24 h, read-out: MIC TA 24 h): > 125 µM
- MIC ([13]; 48 h, read-out: MIC TA 48 h): > 125 µM
- MIC ([14]; 24 h, read-out: MIC AF 24 h): > 125 µM
- MIC ([14]; 48 h, read-out: MIC AF 48 h): > 125 µM
- MIC ([15]; 24 h, read-out: MIC LC 24 h): > 125 µM
- MIC ([15]; 48 h, read-out: MIC LC 48 h): > 125 µM
- MIC ([16]; 72 h, read-out: MIC TI 72 h): 125 µM (≈ 34.5 µg/mL)
- MIC ([16]; 120 h, read-out: MIC TI 120 h): 125 µM (≈ 34.5 µg/mL)
- MIC KP-E 24 h [17]: >500 µM
- MIC KP-E 48 h [17]: >500 µM
- MIC KP 24 h [18]: >500 µM
- MIC KP 48 h [18]: >500 µM

Structure (SMILES): O=C(O)c1ccc(N=Cc2cc(Br)ccc2O)cc1 [1d, 4-[(5-Bromo-2-hydroxybenzylidene)amino]benzoic acid]
- MIC [1, 19]: > 250 µM
- MIC [1, 20]: > 250 µM
- MIC [2, 21]: > 250 µM
- MIC [2, 22]: > 250 µM
- MIC [3, 23]: > 250 µM
- MIC [3, 24]: > 250 µM
- MIC [4, 25]: > 250 µM
- MIC [4, 26]: > 250 µM
- MIC [5, 27]: 250 µM (≈ 80 µg/mL)
- MIC [5, 28]: 500 µM (≈ 160 µg/mL)
- MIC [6, 29]: 500 µM (≈ 160 µg/mL)
- MIC [6, 30]: 500 µM (≈ 160 µg/mL)
- MIC [7, 31]: 250 µM (≈ 80 µg/mL)
- MIC [7, 32]: 250 µM (≈ 80 µg/mL)
- MIC [7, 33]: 500 µM (≈ 160 µg/mL)
- MIC [8, 34]: 500 µM (≈ 160 µg/mL)
- MIC [8, 35]: 500 µM (≈ 160 µg/mL)
- MIC [8, 36]: 500 µM (≈ 160 µg/mL)
- MIC [9, 37]: 62.5 µM (≈ 20 µg/mL)
- MIC [9, 38]: 62.5 µM (≈ 20 µg/mL)
- MIC ([10]; 24 h, read-out: MIC CT 24 h): 125 µM (≈ 40 µg/mL)
- MIC ([10]; 48 h, read-out: MIC CT 48 h): 125 µM (≈ 40 µg/mL)
- MIC ([11]; 24 h, read-out: MIC CK 24 h): 125 µM (≈ 40 µg/mL)
- MIC ([11]; 48 h, read-out: MIC CK 48 h): 125 µM (≈ 40 µg/mL)
- MIC ([12]; 24 h, read-out: MIC CG 24 h): 62.5 µM (≈ 20 µg/mL)
- MIC ([12]; 48 h, read-out: MIC CG 48 h): 62.5 µM (≈ 20 µg/mL)
- MIC ([13]; 24 h, read-out: MIC TA 24 h): 125 µM (≈ 40 µg/mL)
- MIC ([13]; 48 h, read-out: MIC TA 48 h): 125 µM (≈ 40 µg/mL)
- MIC ([14]; 24 h, read-out: MIC AF 24 h): 250 µM (≈ 80 µg/mL)
- MIC ([14]; 48 h, read-out: MIC AF 48 h): 250 µM (≈ 80 µg/mL)
- MIC ([15]; 24 h, read-out: MIC LC 24 h): > 250 µM
- MIC ([15]; 48 h, read-out: MIC LC 48 h): > 250 µM
- MIC ([16]; 72 h, read-out: MIC TI 72 h): 62.5 µM (≈ 20 µg/mL)
- MIC ([16]; 120 h, read-out: MIC TI 120 h): 62.5 µM (≈ 20 µg/mL)
- MIC KP-E 24 h [17]: >250 µM
- MIC KP-E 48 h [17]: >250 µM
- MIC KP 24 h [18]: >250 µM
- MIC KP 48 h [18]: >250 µM
